Results taken from PMC11541514, “Structural and Solution Speciation Studies on fac-Tricarbonylrhenium(I) Complexes of 2,2′-Bipyridine Analogues” (ACS Omega, 2024).

Assays:
[1] = system: Colo205 human colonic adenocarcinoma cell line (doxorubicin-sensitive); test: MTT cytotoxicity assay on Colo205 cells; type: cell-based
Method: The cytotoxic activity of selected halido (1–4Cl, and 3Br with chlorido and bromido coligand, respectively) and aqua (1–4Aq) complexes was evaluated in the drug-sensitive Colo205 and its resistant counterpart Colo320 human colonic adenocarcinoma cell lines using the colorimetric 3-(4,5-dimethylthiazol-2-yl)-2,5-diphenyl-tetrazolium bromide (MTT) assay. For comparison, fac-[Re(CO)3(bpy)(Cl)] (in which bpy denotes 2,2′-bipyridine) was also tested, and doxorubicin was used as a positive control. […] The aqua complexes (1–4Aq) were characterized by even higher IC50 values (>100 μM). The somewhat higher cytotoxic activity of the halido complexes might be the result of their kinetic inertness compared to aqua derivatives, based on the previous solution chemical studies. […]
(§1) The tested compounds were dissolved in DMSO or 20% (v/v) DMSO/H2O mixture to prepare 5 mM stock solutions, which were diluted in complete culture medium, to study the effect of compounds on the cell growth of human colonic adenocarcinoma cell lines (doxorubicin-sensitive Colo205 and resistant Colo320 colonic adenocarcinoma cells). […] Cell growth was determined by measuring the optical density (OD) at 540/630 nm with a Multiscan EX ELISA reader (Thermo Labsystems, Cheshire, WA, USA). […]

[2] = system: Colo320/MDR-LRP resistant human colonic adenocarcinoma cell line; test: MTT cytotoxicity assay on Colo320 cells; type: cell-based; conditions: for IC50: MTT, incubation time 72 h
Method: The cytotoxic activity of selected halido (1–4Cl, and 3Br with chlorido and bromido coligand, respectively) and aqua (1–4Aq) complexes was evaluated in the drug-sensitive Colo205 and its resistant counterpart Colo320 human colonic adenocarcinoma cell lines using the colorimetric 3-(4,5-dimethylthiazol-2-yl)-2,5-diphenyl-tetrazolium bromide (MTT) assay. For comparison, fac-[Re(CO)3(bpy)(Cl)] (in which bpy denotes 2,2′-bipyridine) was also tested, and doxorubicin was used as a positive control. […] The aqua complexes (1–4Aq) were characterized by even higher IC50 values (>100 μM). The somewhat higher cytotoxic activity of the halido complexes might be the result of their kinetic inertness compared to aqua derivatives, based on the previous solution chemical studies.
Doxorubicin-sensitive Colo205 (ATCC-CCL-222) and ABCB1 (MDR1)-LRP-expressing resistant Colo320/MDR-LRP (ATCC-CCL-220.1) human colonic adenocarcinoma cell lines were purchased from LGC Promochem (Teddington, UK). The cells were cultured in RPMI 1640 medium supplemented with 10% heat-inactivated fetal bovine serum, 2 mM L-glutamine, 1 mM Na-pyruvate, and 10 mM 4-(2-hydroxyethyl)-1-piperazineethanesulfonic acid (HEPES, Sigma, Steinheim, Germany). Cell lines were incubated at 37 °C in a 5% CO2, 95% air atmosphere. The semiadherent human colon cancer cells were detached with Trypsin-Versene (EDTA, Sigma, Steinheim, Germany) solution for 5 min at 37 °C.
as §1, with “cells). Doxorubicin (Merck, Darmstadt, Germany) was used as a positive control. The cells were treated with Trypsin-Versene (EDTA) solution.” for “cells).”

Vero cells = test: MTT assay on Vero cells, maximum non-toxic concentration; type: cell-based, African green monkey; conditions: incubation 24 h
Method: Selected compounds (1–4Aq, 1–4Cl, and 3Br) and the reference complex fac-[Re(CO)3(bpy)(Cl)] were tested for their antiviral activity against Herpes simplex virus 2 (HSV-2), which is a double-stranded DNA virus that infects mammals, including humans.[29] The antiviral activity of complexes against HSV-2 was investigated by using Vero cells (originally isolated from kidney epithelial cells of an African green monkey) to host the growing viruses.
Vero cells (ATCC) were placed into the 96-well plate (Sarstedt, Nümbrecht, Germany) at a density of 4 × 10^6 cells/plate. The cells at a density of 4 × 10^4 cells per well were in 100 μL of minimal essential medium (MEM) (Sigma; USA) with Earle salts supplemented with 25 μg/mL gentamicin, 10% heat-inactivated fetal bovine serum (FBS) (Gibco; Germany), 8 mM HEPES, 2 mM L-glutamine, 1× nonessential amino acids, and 1 μg/mL fungisone. The cells were incubated for 60 min at room temperature (RT) to avoid the edge effect and then for 24 h at 37 °C, 5% CO2 that secure a 90% confluent cell layer.[44]
MTT assay was used to determine the maximum non-toxic concentration of the complexes on Vero cells. […] Next day the absorbance of the wells was determined by a microtiter plate reader (Labsystems Multiskan Ex 355, Thermo Fisher Scientific, Waltham, MA USA). The absorbance of the formazan product was measured at 540 nm.[45]

SMILES	IC50 ([1]; Homo sapiens, COLO 205, incubation time 72 h) [µM]	IC50 ([2]; Homo sapiens, COLO 320) [µM]	IC50 ([1]; incubation time 72 h) [µM]	RF (resistance factor = IC50(Colo320)/IC50(Colo205)) ([2]; 72 h)	IC50 [2] [µM]	maximum nontoxic concentration (Vero cells) [µM]
COc1cccc2c1C(=O)c1c(O)c3c(c(O)c1C2=O)C[C@@](O)(C(=O)CO)C[C@@H]3O[C@H]1C[C@H](N)[C@H](O)[C@H](C)O1 [doxorubicin, reference compound]	0.58 ± 0.06	3.13 ± 0.29	–	–	–	–
[C-]#[O+].[C-]#[O+].[C-]#[O+].[Cl][Re-2]1[n+]2ccccc2-c2cccc[n+]21 [fac-[Re(CO)3(bpy)(Cl)], reference compound]	–	–	25.2 ± 1.1	1.95	49.1 ± 1.7	25
